{
  "source": "paper PMC8224385",
  "about": "“X-ray screening identifies active site and allosteric inhibitors of SARS-CoV-2 main protease” (Science (New York, N.y.), 2021)",
  "key": {"[1]": {"tested_on": "SARS-CoV-2", "experiment": "microbe, parasite or virus in culture", "type": "cell-based", "conditions": "for reduction in infectious particles / antiviral activity (in words): SARS-CoV-2, Vero E6 cells; for reduction in infectious particles: compounds considered antivirally active"}, "[2]": {"experiment": "in vitro", "conditions": "African green monkey"}, "[3]": {"experiment": "Cell viability of Vero E6 cells (CCK-8 method)", "conditions": "African green monkey"}, "[4]": {"conditions": "Severe acute respiratory syndrome coronavirus 2, Vero C1008, read-out: EC50 for the viral titer reduction"}, "[5]": {"conditions": "Severe acute respiratory syndrome coronavirus 2, Vero C1008, SARS-CoV-2 infectious particles, Vero E6 cells, immunofocus assay, read-out: EC50 for the viral titer reduction"}},
  "note": "pEC50: −log10 of the molar value. Where a name gives a salt, the structure may show the parent alone. Read-outs that look alike come from different tables or passages of the source.",
  "data": [
    {"compound": "O=C(NC1CCNCC1)c1n[nH]cc1NC(=O)c1c(Cl)cccc1Cl", "note": "[AT7519, N-(4-piperidinyl)-4-(2,6-dichlorobenzoylamino)-1H-pyrazole-3-carboxamide]", "values": [
      {"measurement": "reduction in infectious particles", "setting": "[1]", "value": "≥ 100", "unit": "fold"},
      {"measurement": "pEC50", "setting": "[1]; [4]", "value": 4.60}
    ]},
    {"compound": "O=C1c2ccccc2CCC1CNCCc1ccc(O)cc1", "note": "(stereo not drawn) [HEAT, 2-[β-(4-hydroxyphenyl)-ethylaminomethyl]-tetralone]", "values": [
      {"measurement": "CC50", "setting": "[2]", "value": 55.4, "unit": "µM"},
      {"measurement": "pEC50", "setting": "[1]; [5]", "value": 4.62}
    ]},
    {"compound": "CCc1cc(O)c(Oc2ccc(C(N)=O)cc2F)cc1F", "note": "[MUT056399]", "values": [
      {"measurement": "CC50", "setting": "[2]", "value": "> 100", "unit": "µM"},
      {"measurement": "reduction in infectious particles", "setting": "[1]", "value": "≥ 100", "unit": "fold"},
      {"measurement": "pEC50", "setting": "[1]; [5]", "value": 4.42}
    ]},
    {"compound": "O=C1Nc2ccccc2C2(CCN(CCc3ccc(C(F)(F)F)cc3)CC2)O1", "note": "[RS-102895]", "values": [
      {"measurement": "CC50", "setting": "[3]", "value": 55, "unit": "µM"},
      {"measurement": "pEC50", "setting": "[1]; [4]", "value": 4.70}
    ]},
    {"compound": "CCCC[C@@H](C=O)NC(=O)[C@H](CC(C)C)NC(=O)OCc1ccccc1", "note": "[calpeptin]", "values": [
      {"measurement": "CC50", "setting": "[3]", "value": "> 100", "unit": "µM"},
      {"measurement": "reduction in infectious particles", "setting": "[1]", "value": "≥ 100", "unit": "fold"}
    ]},
    {"compound": "CC(C(O)c1ccc(O)cc1)N1CCC(Cc2ccccc2)CC1", "note": "(centres unmarked) [ifenprodil]", "values": [
      {"measurement": "CC50", "setting": "[3]", "value": "> 100", "unit": "µM"},
      {"measurement": "reduction in infectious particles", "setting": "[1]", "value": "≥ 100", "unit": "fold"},
      {"measurement": "pEC50", "setting": "[1]; [5]", "value": 4.33}
    ]},
    {"compound": "CC(C)c1ccc2c(c1)C(N1CCN(CCO)CC1)Cc1ccc(F)cc1S2", "note": "(centres unmarked) [isofloxythepin]", "values": [
      {"measurement": "CC50", "setting": "[2]", "value": 17, "unit": "µM"},
      {"measurement": "pEC50", "setting": "[1]; [5]", "value": 5.32}
    ]},
    {"compound": "CCOc1cc2ncc(C#N)c(Nc3ccc(F)c(Cl)c3)c2cc1NC(=O)/C=C/CN(C)C", "note": "[pelitinib]", "values": [
      {"measurement": "CC50", "setting": "[2]", "value": 14, "unit": "µM"},
      {"measurement": "reduction in infectious particles", "setting": "[1]", "value": "≥ 100", "unit": "fold"},
      {"measurement": "pEC50", "setting": "[1]; [5]", "value": 5.90}
    ]},
    {"compound": "c1ccc2nc(N3CCNCC3)ccc2c1", "note": "[quipazine maleate]", "values": [
      {"measurement": "CC50", "setting": "[2]", "value": "> 100", "unit": "µM"},
      {"measurement": "pEC50", "setting": "[1]; [5]", "value": 4.50}
    ]},
    {"compound": "CCc1ccc(Cc2ccc3c(c2)[C@]2(OC3)O[C@H](CO)[C@@H](O)[C@H](O)[C@H]2O)cc1", "note": "[tofogliflozin]", "values": [
      {"measurement": "antiviral activity (in words)", "setting": "[1]", "value": "inactive"}
    ]},
    {"compound": "Cc1ccc(C(=O)C(C)CN2CCCCC2)cc1", "note": "(centres unmarked) [tolperisone]", "values": [
      {"measurement": "CC50", "setting": "[2]", "value": "> 100", "unit": "µM"},
      {"measurement": "reduction in infectious particles", "setting": "[1]", "value": "≥ 100", "unit": "fold"},
      {"measurement": "pEC50", "setting": "[1]; [5]", "value": 4.72}
    ]},
    {"compound": "O=c1n(CC2CO2)c(=O)n(CC2CO2)c(=O)n1CC1CO1", "note": "(centres unmarked) [triglycidyl isocyanurate]", "values": [
      {"measurement": "CC50", "setting": "[3]", "value": "> 100", "unit": "µM"},
      {"measurement": "reduction in infectious particles", "setting": "[1]", "value": "≥ 100", "unit": "fold"},
      {"measurement": "pEC50", "setting": "[1]; [5]", "value": 4.52}
    ]},
    {"compound": "PD-168568", "values": [
      {"measurement": "antiviral activity (in words)", "setting": "[1]", "value": "inactive"}
    ]}
  ]
}
